{"source": "patent USRE30886E", "about": "“Method and composition for reducing blood glucose levels” (Nippon Shinyaku Company Ltd., priority 1975, dated 1982)", "key": {"rats": {"system": "rats", "assay": "Antidiabetic action model: glucose level in blood of rats given glucose orally", "assay_type": "in vivo, Male Sprague Dawley rats", "conditions": "1 to 1000 mg/kg, with glucose 0.5 to 4 g/kg orally", "protocol": "Male Sprague Dawley rats of body weight of 150 to 200 grams are fasted overnight and glucose is then administered orally at the rate of 0.5 to 4 g/kg by using a stomach tube. Blood is drawn from the tail vein of each rat at suitable time intervals to determine glucose level in the blood. The glucose content in the blood increases rapidly to cause hyperglycemia."}, "Starch-Administered Rats": {"system": "Starch-Administered Rats", "assay": "Inhibitory action against increase of blood glucose for starch-administered rats", "assay_type": "in vivo, Male Sprague Dawley rats", "conditions": "with 1 g/kg starch; for Blood Glucose Concentration: 5 rats", "protocol": "Male Sprague Dawley rats with body weight of 150 to 200 grams were fasted overnight, and 1 g/kg of starch was administered orally by using a stomach tube. The compound of this invention was simultaneously administered at the dose of 10 to 100 mg/kg, and blood was drawn from the tail vein of each rat and blood glucose levels were examined by a method using glucose oxidase."}, "[1]": {"system": "Sucrose-Administered Rats", "assay": "Inhibitory action against increase of blood glucose for sucrose-administered rats", "assay_type": "in vivo, Male Sprague Dawley rats", "conditions": "with 2 g/kg sucrose", "protocol": "Male Sprague Dawley rats with body weight of 150 to 200 grams were fasted overnight, and 2 g/kg of sucrose was administered orally by using a stomach tube. The compound of this invention was simultaneously administered in a similar way at the rate of 1 to 100 mg/kg, and blood was drawn from the tail vein of each rat at suitable time intervals and blood glucose levels were measured by a method using glucose oxidase."}, "lipid biosynthesis": {"system": "lipid biosynthesis", "assay": "Ability to inhibit lipid biosynthesis"}, "healthy": {"system": "healthy", "assay": "Glucose level in the blood of healthy man after oral carbohydrate", "assay_type": "in vivo, human", "conditions": "1 to 1000 mg/kg orally, with 50 to 100 grams of glucose"}, "humans and other animals": {"system": "humans and other animals", "assay": "Ability to inhibit or reduce the increase of glucose levels in humans and other animals", "assay_type": "in vivo", "conditions": "upon administration of glucose or a glucose producing carbohydrate"}, "[2]": {"assay": "Acute toxicity (LD50) in mice", "assay_type": "in vivo", "conditions": "mouse, in vivo"}, "mice": {"system": "mice", "assay": "Acute toxicity (LD50) in mice", "assay_type": "in vivo"}, "[3]": {"system": "Glucose-administered Rats", "assay": "Inhibitory action against increase of glucose in blood of glucose-administered rats", "assay_type": "in vivo, Male Sprague Dawley rats", "conditions": "with 2 g/kg glucose; for Blood Glucose Concentration: 5 rats", "protocol": "Male Sprague Dawley rats with body weights ranging from 150 to 200 grams were fasted overnight, and then 2 g/kg of glucose was administered orally by using a stomach tube. The compound of this invention was also administered simultaneously in an amount of 10 to 100 mg/kg, and blood was drawn from the tail vein of each rat at suitable time intervals, and blood glucose levels were measured according to a method using glucose oxidase (Blood Sugar Test, TC-M-III, Boehringer Mannheim A.G.)."}, "[4]": {"conditions": "10 mg/kg oral, 0 min after administration"}, "[5]": {"conditions": "10 mg/kg oral, 15 min after administration"}, "[6]": {"conditions": "10 mg/kg oral, 30 min after administration"}, "[7]": {"conditions": "10 mg/kg oral, 60 min after administration"}, "[8]": {"conditions": "100 mg/kg oral, 0 min after administration"}, "[9]": {"conditions": "100 mg/kg oral, 15 min after administration"}, "[10]": {"conditions": "100 mg/kg oral, 30 min after administration"}, "[11]": {"conditions": "100 mg/kg oral, 60 min after administration"}}, "data": [{"smiles": "OC[C@H]1NC[C@H](O)[C@@H](O)[C@@H]1O", "note": "[compound of this invention, 2(R),3(R),4(R),5(S)-2-hydroxymethyl-3,4,5-trihydroxypiperidine]", "values": [{"measurement": "rise of the glucose content in the blood", "setting": "rats", "value": "rise of the glucose content in the blood is inhibited"}, {"measurement": "Blood Glucose Concentration", "setting": "Starch-Administered Rats; [4]", "value": 53, "unit": "mg %"}, {"measurement": "Blood Glucose Concentration", "setting": "Starch-Administered Rats; [5]", "value": 67, "unit": "mg %"}, {"measurement": "Blood Glucose Concentration", "setting": "Starch-Administered Rats; [6]", "value": 80, "unit": "mg %"}, {"measurement": "Blood Glucose Concentration", "setting": "Starch-Administered Rats; [7]", "value": 83, "unit": "mg %"}, {"measurement": "Blood Glucose Concentration", "setting": "Starch-Administered Rats; [8]", "value": 52, "unit": "mg %"}, {"measurement": "Blood Glucose Concentration", "setting": "Starch-Administered Rats; [9]", "value": 57, "unit": "mg %"}, {"measurement": "Blood Glucose Concentration", "setting": "Starch-Administered Rats; [10]", "value": 63, "unit": "mg %"}, {"measurement": "Blood Glucose Concentration", "setting": "Starch-Administered Rats; [11]", "value": 59, "unit": "mg %"}, {"measurement": "Increase of glucose in the blood", "setting": "Starch-Administered Rats; 100 mg/kg", "value": "totally inhibit increase of glucose in the blood"}, {"measurement": "Blood Glucose Concentration", "setting": "[1]; 1 mg/kg oral, 0 min after administration, 5 rats", "value": 69, "unit": "mg %"}, {"measurement": "Blood Glucose Concentration", "setting": "[1]; 1 mg/kg oral, 15 min after administration, 5 rats", "value": 98, "unit": "mg %"}, {"measurement": "Blood Glucose Concentration", "setting": "[1]; 1 mg/kg oral, 30 min after administration, 5 rats", "value": 121, "unit": "mg %"}, {"measurement": "Blood Glucose Concentration", "setting": "[1]; 1 mg/kg oral, 60 min after administration, 5 rats", "value": 127, "unit": "mg %"}, {"measurement": "Blood Glucose Concentration", "setting": "[1]; 10 mg/kg oral, 0 min after administration, 6 rats", "value": 47, "unit": "mg %"}, {"measurement": "Blood Glucose Concentration", "setting": "[1]; 10 mg/kg oral, 15 min after administration, 6 rats", "value": 57, "unit": "mg %"}, {"measurement": "Blood Glucose Concentration", "setting": "[1]; 10 mg/kg oral, 30 min after administration, 6 rats", "value": 52, "unit": "mg %"}, {"measurement": "Blood Glucose Concentration", "setting": "[1]; 10 mg/kg oral, 60 min after administration, 6 rats", "value": 97, "unit": "mg %"}, {"measurement": "Increase of glucose in the blood", "setting": "[1]; 10 mg/kg", "value": "totally inhibited"}, {"measurement": "Blood Glucose Concentration", "setting": "[1]; 100 mg/kg oral, 0 min after administration, 5 rats", "value": 52, "unit": "mg %"}, {"measurement": "Blood Glucose Concentration", "setting": "[1]; 100 mg/kg oral, 15 min after administration, 5 rats", "value": 66, "unit": "mg %"}, {"measurement": "Blood Glucose Concentration", "setting": "[1]; 100 mg/kg oral, 30 min after administration, 5 rats", "value": 63, "unit": "mg %"}, {"measurement": "Blood Glucose Concentration", "setting": "[1]; 100 mg/kg oral, 60 min after administration, 5 rats", "value": 64, "unit": "mg %"}, {"measurement": "inhibition of lipid biosynthesis", "setting": "lipid biosynthesis", "value": "inhibit lipid biosynthesis"}, {"measurement": "rise of the glucose content in the blood", "setting": "healthy", "value": "rise of the glucose content in the blood is inhibited corresponding to the dosage"}, {"measurement": "increase of glucose levels", "setting": "humans and other animals", "value": "inhibit or reduce the increase of glucose levels"}, {"measurement": "LD50", "setting": "[2]; intravenous administration", "value": "> 800", "unit": "mg/kg"}, {"measurement": "LD50", "setting": "[2]; oral administration", "value": "> 1200", "unit": "mg/kg"}, {"measurement": "toxicity", "setting": "mice", "value": "very low"}, {"measurement": "Blood Glucose Concentration", "setting": "[3]; [4]", "value": 59, "unit": "mg %"}, {"measurement": "Blood Glucose Concentration", "setting": "[3]; [5]", "value": 100, "unit": "mg %"}, {"measurement": "Blood Glucose Concentration", "setting": "[3]; [6]", "value": 108, "unit": "mg %"}, {"measurement": "Blood Glucose Concentration", "setting": "[3]; [7]", "value": 107, "unit": "mg %"}, {"measurement": "Blood Glucose Concentration", "setting": "[3]; [8]", "value": 52, "unit": "mg %"}, {"measurement": "Blood Glucose Concentration", "setting": "[3]; [9]", "value": 59, "unit": "mg %"}, {"measurement": "Blood Glucose Concentration", "setting": "[3]; [10]", "value": 58, "unit": "mg %"}, {"measurement": "Blood Glucose Concentration", "setting": "[3]; [11]", "value": 63, "unit": "mg %"}, {"measurement": "Increase of glucose in the blood", "setting": "[3]; 100 mg/kg", "value": "totally inhibited"}]}]}
